Reference: ChEMBL document CHEMBL1149613, “Characterized mechanism of alpha-mangostin-induced cell death: caspase-independent apoptosis with release of endonuclease-G from mitochondria and increased miR-143 expression in human colorectal cancer DLD-1 cells” (Bioorg Med Chem, 2007)
Calls of active or inactive are those of the source. The calls are words filed in the database; no cut-off is given here.

How the values were obtained:
Format in all cases: functional, cell-based
DLD-1 [1] = experiment: Growth inhibition of human DLD1 cells
DLD-1 [2] = experiment: Induction of apoptosis in human DLD1 cells assessed as activation of bcl2 at 20 uM by Western blot
DLD-1 [3] = experiment: Cytotoxicity against human DLD1 cells after 24 hrs by Trypan blue exclusion test; settings: DLD-1, 24 h
DLD-1 [4] = experiment: Effect on ERK5 mRNA expression levels in human DLD1 cells by semi-qRT PCR
DLD-1 [5] = experiment: Cytotoxicity against human DLD1 cells assessed as decrease in cell number at 20 uM after 24 hrs by Trypan blue exclusion test
DLD-1 [6] = experiment: Apoptotic activity in human DLD1 cells at 15 uM after 24 hrs by Trypan blue exclusion test
DLD-1 [7] = experiment: Induction of apoptosis in human DLD1 cells assessed as release of endonuclease-G after 6 hrs by Western blot
DLD-1 [8] = experiment: Induction of apoptosis in human DLD1 cells assessed as activation of pan-caspase at 20 uM by Western blot
DLD-1 [9] = experiment: Induction of apoptosis in human DLD1 cells assessed as activation of bax protein at 20 uM by Western blot
DLD-1 [10] = experiment: Increase in p-p38 levels in human DLD1 cells after 1 to 3 hrs by Western blot
DLD-1 [11] = experiment: Induction of apoptosis in human DLD1 cells assessed as release of endonuclease-G at 20 uM after 6 to 24 hrs by Western blot
DLD-1 [12] = experiment: Induction of apoptosis in human DLD1 cells assessed as release of apoptosis-inducing factor at 20 uM after 6 to 24 hrs by Western blot
DLD-1 [13] = experiment: Reduction in cMyc level in human DLD1 cells by Western blot
DLD-1 [14] = experiment: Induction of apoptosis in human DLD1 cells assessed as activation of caspase-3 at 20 uM by Western blot
DLD-1 [15] = experiment: Decrease in Erk5 expression levels in human DLD1 cells by Western blot
DLD-1 [16] = experiment: Cytotoxicity against human DLD1 cells at 2 uM after 24 hrs by Trypan blue exclusion test

| Structure (SMILES) | IC50 (DLD-1 [1]) [µM] | Activity (DLD-1 [2]) | IC50 (DLD-1 [3]) [µM] | Activity (DLD-1 [4]) | Activity (DLD-1 [5]) | Activity (DLD-1 [6]) | Activity (DLD-1 [7]) | Activity (DLD-1 [8]) | Activity (DLD-1 [9]) | Activity (DLD-1 [10]) | Activity (DLD-1 [11]) | Activity (DLD-1 [12]) | Activity (DLD-1 [13]) | Activity (DLD-1 [14]) | Activity (DLD-1 [15]) | Activity (DLD-1 [16]) |
| --- | --- | --- | --- | --- | --- | --- | --- | --- | --- | --- | --- | --- | --- | --- | --- | --- |
| O=c1[nH]cc(F)c(=O)[nH]1 [FLUOROURACIL] | 4.5 |  |  |  |  |  |  |  |  |  |  |  |  |  |  |  |
| COc1c(O)cc2oc3cc(O)c(CC=C(C)C)c(O)c3c(=O)c2c1CC=C(C)C [MANGOSTIN] |  | inactive | 7.5 | inactive | Active | Active | Dose-dependent effect | inactive | inactive | Active | Active | inactive | Active | inactive | Active | Active |
